Experimental data as given in ChEMBL document CHEMBL4270481, “ALK5 kinase inhibitory activity and synthesis of 2,3,4-substituted 5,5-dimethyl-5,6-dihydro-4H-pyrrolo[1,2-b]pyrazoles” (Eur J Med Chem, 2017).

Experiments:
TGF-beta receptor type-1 = molecular target: T1, TGF-beta receptor type-1 (Homo sapiens, UniProt P36897); assay: Inhibition of human ALK5 expressed in Sf9 insect cells using casein as substrate in presence of [gamma-33P]ATP; format: cell-based
T1 sequence (P36897 whole entry): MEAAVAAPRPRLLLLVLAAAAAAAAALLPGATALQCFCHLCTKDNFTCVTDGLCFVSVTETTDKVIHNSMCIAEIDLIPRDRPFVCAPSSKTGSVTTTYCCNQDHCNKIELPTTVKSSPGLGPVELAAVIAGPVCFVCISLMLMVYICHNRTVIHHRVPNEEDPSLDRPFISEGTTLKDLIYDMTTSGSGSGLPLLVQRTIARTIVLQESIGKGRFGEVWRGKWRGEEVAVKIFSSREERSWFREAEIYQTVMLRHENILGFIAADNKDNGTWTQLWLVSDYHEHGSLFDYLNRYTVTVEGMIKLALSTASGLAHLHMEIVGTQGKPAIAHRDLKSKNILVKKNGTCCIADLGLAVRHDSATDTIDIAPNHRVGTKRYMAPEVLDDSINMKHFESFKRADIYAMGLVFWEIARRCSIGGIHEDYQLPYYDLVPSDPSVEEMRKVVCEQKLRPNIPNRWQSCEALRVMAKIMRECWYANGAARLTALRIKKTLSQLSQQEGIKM

[1] = molecular target: Tyrosine-protein kinase ABL1 (Mus musculus, UniProt P00520); assay: biochemical; format: cell-based, Sf9
HeLa = assay: Cytotoxicity against human HeLa cells assessed as decrease in cell proliferation up to 100 uM after 72 hrs by calcein AM staining-based assay
[2] = molecular target: T2, TGF-beta receptor type-1 (Homo sapiens) (UniProt P36897); assay: Inhibition of ALK5 in serum starved human HeLa cells assessed as reduction in TGF-beta-induced SMAD2 S465/467 phosphorylation pre-incubated for 30 mins before TGF-beta stimulation for 30 mins by immunoblotting analysis; format: cell-based
T2 sequence (whole entry): T1 sequence (P36897 whole entry)

[3] = molecular target: T2, TGF-beta receptor type-1 (Homo sapiens); assay: Inhibition of ALK5 in serum starved human HeLa cells assessed as reduction in TGF-beta-induced SMAD2/3 nuclear transaction at 10 uM pre-incubated for 30 mins before TGF-beta stimulation for 30 mins by immunofluorescence analysis; format: cell-based
[4] = molecular target: Mitogen-activated protein kinase 14 (Homo sapiens) (UniProt Q16539); assay: Inhibition of p38alpha (unknown origin) assessed as residual enzyme activity at 1 uM relative to untreated control
[5] = molecular target: Receptor-interacting serine/threonine-protein kinase 2 (Homo sapiens) (UniProt O43353); assay: Inhibition of RIPK2 (unknown origin) assessed as residual enzyme activity at 1 uM relative to untreated control
[6] = molecular target: Serine/threonine-protein kinase D1 (Homo sapiens) (UniProt Q15139); assay: Inhibition of PKD1 (unknown origin) assessed as residual enzyme activity at 1 uM relative to untreated control
[7] = molecular target: Casein kinase I isoform delta (Homo sapiens) (UniProt P48730); assay: Inhibition of CK1delta (unknown origin) assessed as residual enzyme activity at 1 uM relative to untreated control
[8] = molecular target: Ribosomal protein S6 kinase alpha-1 (Homo sapiens) (UniProt Q15418); assay: Inhibition of RSK1 (unknown origin) assessed as residual enzyme activity at 1 uM relative to untreated control
[9] = molecular target: Serine/threonine-protein kinase Sgk1 (Homo sapiens) (UniProt O00141); assay: Inhibition of SGK1 (unknown origin) assessed as residual enzyme activity at 1 uM relative to untreated control
[10] = molecular target: Calcium/calmodulin-dependent protein kinase kinase 2 (Homo sapiens) (UniProt Q96RR4); assay: Inhibition of CAMKKbeta (unknown origin) assessed as residual enzyme activity at 1 uM relative to untreated control
[11] = molecular target: Dual specificity tyrosine-phosphorylation-regulated kinase 1A (Homo sapiens) (UniProt Q13627); assay: Inhibition of DYRK1A (unknown origin) assessed as residual enzyme activity at 1 uM relative to untreated control
[12] = molecular target: Eukaryotic elongation factor 2 kinase (Homo sapiens) (UniProt O00418); assay: Inhibition of EF2K (unknown origin) assessed as residual enzyme activity at 1 uM relative to untreated control
[13] = molecular target: Ephrin type-A receptor 2 (Homo sapiens) (UniProt P29317); assay: Inhibition of EPHA2 (unknown origin) assessed as residual enzyme activity at 1 uM relative to untreated control
[14] = molecular target: Receptor tyrosine-protein kinase erbB-4 (Homo sapiens) (UniProt Q15303); assay: Inhibition of HER4 (unknown origin) assessed as residual enzyme activity at 1 uM relative to untreated control
[15] = molecular target: Homeodomain-interacting protein kinase 2 (Homo sapiens) (UniProt Q9H2X6); assay: Inhibition of HIPK2 (unknown origin) assessed as residual enzyme activity at 1 uM relative to untreated control
[16] = molecular target: Insulin-like growth factor 1 receptor (Homo sapiens) (UniProt P08069); assay: Inhibition of IGF1R (unknown origin) assessed as residual enzyme activity at 1 uM relative to untreated control
[17] = molecular target: Tyrosine-protein kinase JAK2 (Homo sapiens) (UniProt O60674); assay: Inhibition of JAK2 (unknown origin) assessed as residual enzyme activity at 1 uM relative to untreated control
[18] = molecular target: Serine/threonine-protein kinase STK11 (Homo sapiens) (UniProt Q15831); assay: Inhibition of LKB1 (unknown origin) assessed as residual enzyme activity at 1 uM relative to untreated control
[19] = molecular target: MAP/microtubule affinity-regulating kinase 3 (Homo sapiens) (UniProt P27448); assay: Inhibition of MARK3 (unknown origin) assessed as residual enzyme activity at 1 uM relative to untreated control
[20] = molecular target: Ribosomal protein S6 kinase alpha-5 (Homo sapiens) (UniProt O75582); assay: Inhibition of MSK1 (unknown origin) assessed as residual enzyme activity at 1 uM relative to untreated control
[21] = molecular target: Serine/threonine-protein kinase 3 (Homo sapiens) (UniProt Q13188); assay: Inhibition of MST2 (unknown origin) assessed as residual enzyme activity at 1 uM relative to untreated control
[22] = molecular target: 3-phosphoinositide-dependent protein kinase 1 (Homo sapiens) (UniProt O15530); assay: Inhibition of PDK1 (unknown origin) assessed as residual enzyme activity at 1 uM relative to untreated control
[23] = molecular target: Protein kinase C alpha type (Homo sapiens) (UniProt P17252); assay: Inhibition of PKCalpha (unknown origin) assessed as residual enzyme activity at 1 uM relative to untreated control
[24] = molecular target: Ribosomal protein S6 kinase beta-1 (Homo sapiens) (UniProt P23443); assay: Inhibition of S6K1 (unknown origin) assessed as residual enzyme activity at 1 uM relative to untreated control
[25] = molecular target: SRSF protein kinase 1 (Homo sapiens) (UniProt Q96SB4); assay: Inhibition of SRPK1 (unknown origin) assessed as residual enzyme activity at 1 uM relative to untreated control
[26] = molecular target: Mitogen-activated protein kinase kinase kinase 7 (Homo sapiens) (UniProt O43318); assay: Inhibition of TAK1 (unknown origin) assessed as residual enzyme activity at 1 uM relative to untreated control
[27] = molecular target: Serine/threonine-protein kinase TBK1 (Homo sapiens) (UniProt Q9UHD2); assay: Inhibition of TBK1 (unknown origin) assessed as residual enzyme activity at 1 uM relative to untreated control

Sequence of Serine/threonine-protein kinase 3 (Homo sapiens) (Q13188 whole entry): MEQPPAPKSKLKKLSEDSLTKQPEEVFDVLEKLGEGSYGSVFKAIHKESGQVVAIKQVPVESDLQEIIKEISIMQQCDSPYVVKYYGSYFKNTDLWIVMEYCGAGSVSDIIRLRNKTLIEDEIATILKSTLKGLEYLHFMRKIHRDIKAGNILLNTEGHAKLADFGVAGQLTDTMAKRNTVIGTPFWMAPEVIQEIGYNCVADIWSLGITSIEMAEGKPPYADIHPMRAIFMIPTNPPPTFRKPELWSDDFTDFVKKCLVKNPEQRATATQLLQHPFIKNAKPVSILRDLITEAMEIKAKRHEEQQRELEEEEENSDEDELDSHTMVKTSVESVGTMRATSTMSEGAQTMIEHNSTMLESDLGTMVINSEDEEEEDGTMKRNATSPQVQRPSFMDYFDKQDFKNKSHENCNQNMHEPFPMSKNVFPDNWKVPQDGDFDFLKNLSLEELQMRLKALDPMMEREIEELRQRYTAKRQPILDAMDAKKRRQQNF
Sequence of Serine/threonine-protein kinase STK11 (Homo sapiens) (Q15831 whole entry): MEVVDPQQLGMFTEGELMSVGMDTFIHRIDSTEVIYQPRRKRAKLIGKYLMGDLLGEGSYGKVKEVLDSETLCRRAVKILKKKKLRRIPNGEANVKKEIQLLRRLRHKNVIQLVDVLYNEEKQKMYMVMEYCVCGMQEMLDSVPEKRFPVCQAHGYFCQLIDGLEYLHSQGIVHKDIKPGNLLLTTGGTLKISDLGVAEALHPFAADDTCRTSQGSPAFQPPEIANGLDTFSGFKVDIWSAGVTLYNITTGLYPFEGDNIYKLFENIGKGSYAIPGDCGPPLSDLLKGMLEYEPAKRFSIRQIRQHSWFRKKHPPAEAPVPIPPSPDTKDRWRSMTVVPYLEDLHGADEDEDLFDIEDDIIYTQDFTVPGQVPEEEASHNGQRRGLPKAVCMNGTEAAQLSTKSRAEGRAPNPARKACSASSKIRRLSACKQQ
Sequence of Receptor-interacting serine/threonine-protein kinase 2 (Homo sapiens) (O43353 whole entry): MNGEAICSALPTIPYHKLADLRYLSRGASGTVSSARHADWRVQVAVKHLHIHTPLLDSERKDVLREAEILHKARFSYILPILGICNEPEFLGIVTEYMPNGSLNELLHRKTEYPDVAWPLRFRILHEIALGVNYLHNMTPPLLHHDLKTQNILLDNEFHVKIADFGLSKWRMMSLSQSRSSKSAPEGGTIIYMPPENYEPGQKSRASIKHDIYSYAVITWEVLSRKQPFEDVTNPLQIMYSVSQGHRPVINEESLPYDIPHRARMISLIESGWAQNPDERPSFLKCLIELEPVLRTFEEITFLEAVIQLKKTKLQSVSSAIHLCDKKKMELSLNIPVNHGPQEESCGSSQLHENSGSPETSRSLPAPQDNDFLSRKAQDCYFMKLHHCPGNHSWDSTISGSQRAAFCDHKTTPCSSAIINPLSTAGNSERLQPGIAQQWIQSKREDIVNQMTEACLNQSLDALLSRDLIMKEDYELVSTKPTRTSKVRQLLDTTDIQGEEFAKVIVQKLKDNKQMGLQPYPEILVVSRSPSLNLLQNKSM
Sequence of Serine/threonine-protein kinase D1 (Homo sapiens) (Q15139 whole entry, canonical isoform): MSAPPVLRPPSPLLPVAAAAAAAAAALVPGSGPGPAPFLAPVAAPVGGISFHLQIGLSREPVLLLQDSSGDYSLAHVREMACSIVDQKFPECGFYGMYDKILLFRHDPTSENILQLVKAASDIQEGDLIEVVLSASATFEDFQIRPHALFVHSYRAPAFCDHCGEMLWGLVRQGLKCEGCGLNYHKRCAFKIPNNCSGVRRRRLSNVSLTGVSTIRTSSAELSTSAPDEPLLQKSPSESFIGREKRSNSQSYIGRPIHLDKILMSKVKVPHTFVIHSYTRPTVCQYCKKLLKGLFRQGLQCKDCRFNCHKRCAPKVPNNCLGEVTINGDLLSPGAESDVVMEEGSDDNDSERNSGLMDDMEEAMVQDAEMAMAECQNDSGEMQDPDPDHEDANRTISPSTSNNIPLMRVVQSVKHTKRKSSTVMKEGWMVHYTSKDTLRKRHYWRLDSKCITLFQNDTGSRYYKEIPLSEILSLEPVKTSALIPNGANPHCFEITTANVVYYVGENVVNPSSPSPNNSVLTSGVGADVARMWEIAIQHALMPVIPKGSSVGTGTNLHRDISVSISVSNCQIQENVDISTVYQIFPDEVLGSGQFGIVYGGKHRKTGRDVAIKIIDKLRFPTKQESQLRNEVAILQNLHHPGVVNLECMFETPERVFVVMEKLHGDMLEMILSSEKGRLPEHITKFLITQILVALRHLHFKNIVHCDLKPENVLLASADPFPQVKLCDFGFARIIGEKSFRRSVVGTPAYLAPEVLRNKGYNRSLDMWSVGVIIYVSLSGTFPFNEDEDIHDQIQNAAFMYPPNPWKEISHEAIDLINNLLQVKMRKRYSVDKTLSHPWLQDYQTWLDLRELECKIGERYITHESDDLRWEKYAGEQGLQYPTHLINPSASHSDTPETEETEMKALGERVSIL
Sequence of Homeodomain-interacting protein kinase 2 (Homo sapiens) (Q9H2X6 whole entry, looked up): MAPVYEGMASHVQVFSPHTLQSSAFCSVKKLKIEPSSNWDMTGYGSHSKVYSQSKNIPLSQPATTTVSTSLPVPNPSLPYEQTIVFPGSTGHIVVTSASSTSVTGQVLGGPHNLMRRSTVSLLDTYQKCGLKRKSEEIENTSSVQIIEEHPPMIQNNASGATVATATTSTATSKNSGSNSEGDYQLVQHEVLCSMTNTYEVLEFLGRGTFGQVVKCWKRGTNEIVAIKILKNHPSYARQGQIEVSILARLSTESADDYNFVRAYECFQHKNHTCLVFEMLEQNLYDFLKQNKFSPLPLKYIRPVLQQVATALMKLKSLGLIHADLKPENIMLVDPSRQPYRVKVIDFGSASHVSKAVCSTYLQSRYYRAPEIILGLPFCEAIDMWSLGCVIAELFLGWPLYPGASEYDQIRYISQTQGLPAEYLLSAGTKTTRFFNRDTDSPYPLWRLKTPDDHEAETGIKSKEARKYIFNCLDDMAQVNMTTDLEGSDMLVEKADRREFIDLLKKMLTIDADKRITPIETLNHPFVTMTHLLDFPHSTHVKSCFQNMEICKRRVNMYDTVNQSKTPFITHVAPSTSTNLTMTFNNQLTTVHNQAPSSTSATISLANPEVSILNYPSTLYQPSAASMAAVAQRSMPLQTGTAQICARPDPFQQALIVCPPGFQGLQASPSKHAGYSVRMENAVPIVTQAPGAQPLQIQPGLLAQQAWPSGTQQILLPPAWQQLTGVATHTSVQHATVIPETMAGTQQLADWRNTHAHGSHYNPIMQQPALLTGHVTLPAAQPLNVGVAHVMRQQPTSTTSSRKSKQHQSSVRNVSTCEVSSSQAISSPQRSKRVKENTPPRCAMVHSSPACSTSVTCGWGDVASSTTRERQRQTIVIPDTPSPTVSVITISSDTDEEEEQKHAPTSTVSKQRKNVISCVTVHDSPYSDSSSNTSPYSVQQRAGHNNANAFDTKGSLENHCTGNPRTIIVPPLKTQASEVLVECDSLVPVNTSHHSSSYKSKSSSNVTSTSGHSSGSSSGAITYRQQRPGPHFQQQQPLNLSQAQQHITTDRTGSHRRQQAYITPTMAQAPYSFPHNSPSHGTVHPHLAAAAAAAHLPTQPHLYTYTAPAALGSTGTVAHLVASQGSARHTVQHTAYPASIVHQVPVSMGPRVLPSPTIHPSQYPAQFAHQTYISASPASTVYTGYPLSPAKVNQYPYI
Sequence of Mitogen-activated protein kinase kinase kinase 7 (Homo sapiens) (O43318 whole entry): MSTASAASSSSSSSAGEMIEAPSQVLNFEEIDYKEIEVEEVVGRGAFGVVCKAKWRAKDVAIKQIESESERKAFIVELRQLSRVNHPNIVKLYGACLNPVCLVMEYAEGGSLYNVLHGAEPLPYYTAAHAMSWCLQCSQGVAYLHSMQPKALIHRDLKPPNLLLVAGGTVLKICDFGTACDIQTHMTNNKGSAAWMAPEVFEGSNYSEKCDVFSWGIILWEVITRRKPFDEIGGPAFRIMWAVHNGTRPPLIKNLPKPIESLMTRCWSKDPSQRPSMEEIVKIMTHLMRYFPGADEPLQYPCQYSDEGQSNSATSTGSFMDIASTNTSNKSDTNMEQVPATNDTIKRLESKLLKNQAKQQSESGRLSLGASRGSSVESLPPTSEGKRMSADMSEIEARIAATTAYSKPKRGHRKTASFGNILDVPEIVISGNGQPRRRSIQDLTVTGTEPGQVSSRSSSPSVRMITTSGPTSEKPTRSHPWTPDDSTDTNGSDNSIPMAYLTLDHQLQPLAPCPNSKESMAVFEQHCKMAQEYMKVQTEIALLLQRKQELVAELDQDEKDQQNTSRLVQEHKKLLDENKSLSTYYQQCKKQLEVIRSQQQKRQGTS
Sequence of Serine/threonine-protein kinase Sgk1 (Homo sapiens) (O00141 whole entry): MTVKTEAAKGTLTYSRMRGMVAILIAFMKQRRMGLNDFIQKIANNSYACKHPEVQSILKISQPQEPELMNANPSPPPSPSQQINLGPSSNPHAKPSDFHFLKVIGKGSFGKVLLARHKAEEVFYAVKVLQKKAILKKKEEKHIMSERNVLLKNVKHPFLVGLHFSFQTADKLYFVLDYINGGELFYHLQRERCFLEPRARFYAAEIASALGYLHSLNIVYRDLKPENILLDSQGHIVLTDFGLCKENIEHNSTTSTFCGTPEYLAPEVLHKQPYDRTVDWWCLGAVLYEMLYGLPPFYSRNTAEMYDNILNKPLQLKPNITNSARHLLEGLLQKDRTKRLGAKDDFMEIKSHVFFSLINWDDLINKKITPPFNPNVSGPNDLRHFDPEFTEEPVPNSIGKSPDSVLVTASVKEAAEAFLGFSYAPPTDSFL
Sequence of Mitogen-activated protein kinase 14 (Homo sapiens) (Q16539 whole entry): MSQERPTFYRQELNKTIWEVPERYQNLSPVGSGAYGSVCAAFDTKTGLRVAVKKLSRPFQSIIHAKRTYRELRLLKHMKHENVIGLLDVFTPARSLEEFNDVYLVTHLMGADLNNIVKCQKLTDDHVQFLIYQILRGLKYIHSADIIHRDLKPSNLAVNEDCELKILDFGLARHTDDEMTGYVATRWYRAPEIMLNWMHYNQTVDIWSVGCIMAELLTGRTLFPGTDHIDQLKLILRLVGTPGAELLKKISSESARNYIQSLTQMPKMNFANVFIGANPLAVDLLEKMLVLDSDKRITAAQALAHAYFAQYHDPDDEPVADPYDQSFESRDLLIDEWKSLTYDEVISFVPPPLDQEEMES

Which IC50 (TGF-beta receptor type-1) does the source give for Cc1cccc(-c2nn3c(c2-c2ccc(O)cc2)C(C)C(C)(C)C3)n1 (centres undefined) here?
Its IC50 is 0.08 µM.

And the IC50 [1]?
The IC50 was 66 µM.

What about the Activity (HeLa) of the same compound?
The Activity was “Non-Toxic”.

What about the inhibition [2] of the same compound?
Its inhibition is “Dose-dependent effect”.

What about the inhibition [3] of the same compound?
The inhibition was 100%.

And the Activity [4]?
The Activity was 9%.

What about the Activity [5] of the same compound?
The Activity was 11%.

And the Activity [6]?
Its Activity is 12%.

And the Activity [7]?
Its Activity is 34%.

What about the Activity [8] of the same compound?
The Activity was 60 to 80%.

What about the Activity [9] of the same compound?
The Activity was 60 to 80%.

And the Activity [10]?
The Activity was > 80%.

What about the Activity [11] of the same compound?
The Activity was > 80%.

And the Activity [12]?
The Activity was > 80%.

What about the Activity [13] of the same compound?
The Activity was > 80%.

What about the Activity [14] of the same compound?
Its Activity is > 80%.

What about the Activity [15] of the same compound?
The Activity was > 80%.

And the Activity [16]?
Its Activity is > 80%.

And the Activity [17]?
Its Activity is > 80%.

What about the Activity [18] of the same compound?
The Activity was > 80%.

And the Activity [19]?
The Activity was > 80%.

And the Activity [20]?
The Activity was > 80%.

What about the Activity [21] of the same compound?
The Activity was > 80%.

And the Activity [22]?
Its Activity is > 80%.

And the Activity [23]?
Its Activity is > 80%.

And the Activity [24]?
Its Activity is > 80%.

What about the Activity [25] of the same compound?
Its Activity is > 80%.

And the Activity [26]?
The Activity was > 80%.

And the Activity [27]?
Its Activity is > 80%.
